Data set [1] has as its system NLRP3, NLRC4. As to conditions: approximate inhibitory concentration, literature; cited from earlier work.
For data set [2], the system named is NLRP3. As to conditions: approximate inhibitory concentration, literature; cited from earlier work.
Data set [3] has as its target T1, CYP2C19 (Homo sapiens, UniProt P33261).
T1 construct: pooled human liver microsomes were assayed at 0.25 mg/mL concentration; from tissue; host or cells: pooled human liver microsomes
Kind of data set: Cytochrome P450 inhibition. In kind it is in vitro ADME. To be noted: probe mephenytoin (4-hydroxylation), pooled human liver microsomes 0.25 mg/mL, read-out: CYP inhibition (% at 10 μM) 2C19. Here is the method: (§1) The inhibitory effects of NIC7 and NIC7w on the metabolism of the five major P450 probe substrates were evaluated using a previously reported method (S. Seino, Diabetologia 55, 2096-2108 (2012)) with minor modifications. A cocktail of substrates (phenacetin O-deethylase, tolbutamide 4-hydroxylase, mephenytoin 4-hydroxylase, dextromethorphan O-demethylase, and midazolam 1′-hydroxylase) was used for five major P450 enzymes, CYP1A2, CYP2C9, CYP2C19, CYP2D6, and CYP3A4, respectively. NIC7 and NIC7w were prepared at a concentration of 10 mM in DMSO and dissolved in methanol at a concentration of 1 mM. In all experiments, the final concentration of an organic solvent (methanol) for cocktail incubation was set at 1.0% (v/v). Both NIC7 and NIC7w were used at 10 μM, and pooled human liver microsomes were assayed at 0.25 mg/mL concentration. The substrate cocktail solution was incubated with the microsomes for 5 min at 37° C. The reaction was initiated by adding an NADPH-generating system (the same as described in Examples 1-5) at 37° C. and 1300 rpm. The reaction was stopped at 10 min by the addition of cold acetonitrile containing carbamazepine as an internal standard at 20 ng/mL. After vortexing and centrifugation, the supernatant was analyzed with LC-MS/MS. All microsomal incubations were performed in triplicate.

The target of data set [4] is T2, CYP1A2 (Homo sapiens, UniProt P05177).
T2 construct: pooled human liver microsomes were assayed at 0.25 mg/mL concentration; from tissue; host or cells: pooled human liver microsomes
T2 sequence (P05177 1-516): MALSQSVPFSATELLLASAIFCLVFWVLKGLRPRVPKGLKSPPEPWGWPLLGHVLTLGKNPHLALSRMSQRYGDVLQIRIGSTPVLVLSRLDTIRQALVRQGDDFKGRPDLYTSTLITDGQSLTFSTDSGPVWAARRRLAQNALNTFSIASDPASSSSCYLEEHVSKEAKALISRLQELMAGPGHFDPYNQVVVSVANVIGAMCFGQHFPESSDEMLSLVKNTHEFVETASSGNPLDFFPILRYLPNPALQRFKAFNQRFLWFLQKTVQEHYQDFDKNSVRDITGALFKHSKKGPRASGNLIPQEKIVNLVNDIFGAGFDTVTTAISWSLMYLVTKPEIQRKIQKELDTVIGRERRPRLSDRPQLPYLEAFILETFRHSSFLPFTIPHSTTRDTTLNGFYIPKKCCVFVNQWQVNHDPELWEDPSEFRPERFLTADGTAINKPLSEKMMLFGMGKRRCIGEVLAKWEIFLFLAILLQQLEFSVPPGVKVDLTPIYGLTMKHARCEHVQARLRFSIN
Kind of data set: Cytochrome P450 inhibition. In kind it is in vitro ADME. As to conditions: probe phenacetin (O-deethylation), pooled human liver microsomes 0.25 mg/mL, read-out: CYP inhibition (% at 10 μM) 1A2. Here is the method: as §1

The target in data set [5] is T3, CYP2D6 (Homo sapiens, UniProt P10635).
T3 construct: pooled human liver microsomes were assayed at 0.25 mg/mL concentration; from tissue; host or cells: pooled human liver microsomes
Kind of data set: Cytochrome P450 inhibition. In kind it is in vitro ADME. To be noted: probe dextromethorphan (O-demethylation), pooled human liver microsomes 0.25 mg/mL, read-out: CYP inhibition (% at 10 μM) 2D6. Here is the method: as §1

Data set [6] has as its target T4, CYP3A4 (Homo sapiens, UniProt P08684).
T4 construct: pooled human liver microsomes were assayed at 0.25 mg/mL concentration; from tissue; host or cells: pooled human liver microsomes
Kind of data set: Cytochrome P450 inhibition. The format is in vitro ADME. As to conditions: probe midazolam (1′-hydroxylation), pooled human liver microsomes 0.25 mg/mL, read-out: CYP inhibition (% at 10 μM) 3A4. The procedure:
as §1

The target in data set [7] is T5, CYP2C9 (Homo sapiens, UniProt P11712).
T5 construct: pooled human liver microsomes were assayed at 0.25 mg/mL concentration; from tissue; host or cells: pooled human liver microsomes
The data set can be described thus: Cytochrome P450 inhibition. In kind it is in vitro ADME. Here is the method: as §1

Data set [8] can be described thus: Microsomal stability. The format is in vitro ADME, human. The procedure:
Stock solutions of NIC7 and NIC7w were prepared at a concentration of 10 mM in DMSO, and were diluted to a concentration of 100 μM with 100% methanol as a working solution. These NIC7 and NIC7w solutions were diluted to a concentration of 1 μM with potassium phosphate buffer (pH 7.4), and then each solution was incubated with 0.5 mg/mL liver microsomes (human) at 37° C. for 5 minutes. The reaction was initiated by adding a NADPH-generating system (3.3 mM glucose-6-phosphate (G6P), 1.3 mM β-NADP^+, 3.3 mM MgCl2, and 0.4 U/mL glucose-6-phosphate dehydrogenase (G6PD)) at 37° C. The reaction was stopped at 0 and 30 minutes using cold acetonitrile containing carbamazepine as an internal standard at 20 ng/mL. After vortexing and centrifugation, the supernatant was analyzed with liquid chromatography with tandem mass spectrometry (LC-MS/MS). All microsomal assays were performed in duplicate.
After sample preparation, 0.1 mL acetonitrile containing 20 ng/mL internal standard was added to a 50 μL aliquot of each biological sample. After vortexing and centrifugation at 12,000 rpm for 10 minutes, 10 μL of the supernatant was analyzed with LC-MS/MS.
In the LC system, a reversed-phase C18 column (BEH C18, 2.1 mm×100 mm i.d., 1.7 μm; Waters, Ireland) was maintained at 4° C. The composition of the mobile phase was changed from 80% of 0.1% formic acid in water to 80% of 0.1% formic acid in acetonitrile for 3 minutes, and then switched to 80% of 0.1% formic acid in water for 3.1 minutes, and maintained at 0.5 at mL/min for 5 minutes. The analytes were monitored on an API5500 triple quadrupole mass spectrometer MS (AB Sciex, Foster City, CA) equipped with a turbo ion spray interface for electrospray ionization and operated in positive ion mode at 5.5 kV and 500° C. at 50 L/min of atomizing gas flow, 50 L/min of turbo ion-spray gas flow, 20 L/min of curtain gas flow, 5.5 kV of ring voltage and 5 Torr of collision gas (nitrogen) pressure. The mass transitions for NIC7, NIC7w and the internal standard were m/z 481.1→165.0 (collision energy, 45 eV), 453.1→165.0 (41.0 eV) and 236.9→194.0 (29 eV), respectively, in the multiple reaction monitoring mode.

The subject of data set [9] is NLRP3 signaling pathway (IL-1β, caspase 1). The data set can be described thus: Western blot of the NLRP3 signaling pathway. As to conditions: 10 μM, PMA-differentiated THP-1, LPS/nigericin. In kind it is cell-based, human. The procedure: Cytoplasmic proteins were extracted using NE-PERTM Nuclear and Cytoplasmic Extraction Reagent (Thermo Fisher Scientific, Inc.), and the total-protein was measured using a Bicinchoninic (BCA) assay kit (Sigma-Aldrich Co.). The proteins were separated by SDS-PAGE and transferred to a membrane using a Mini-PROTEAN Tetra Cell and Mini Trans-Blot Electrophoretic Transfer Cell System (Bio-Rad Laboratories, Hercules, CA, USA). The membranes were blocked with skim milk (5%) for 1 hour, and immunoblotted with antibodies against NLRP3, IL-1β, mature IL-1β (Cell Signaling Technology Inc., Danvers, MA, USA), caspase 1 and β-actin (Santa Cruz Biotechnology Inc., Dallas, TX, USA) at 4° C. overnight. After washing with PBS supplemented with 0.1% of Tween 20, the membranes were treated with a peroxidase-conjugated anti-rabbit or anti-mouse IgG antibody (1:1,000) for 2 hours at room temperature. The SuperSignal West Pico ECL solution (Thermo Fisher Scientific, Inc.) was used to detect protein bands that were visualized on a ChemiDocm Touch Imaging System (Bio-Rad Laboratories).

The target of data set [10] is T6, NLRP3 (Homo sapiens, UniProt Q96P20).
T6 construct: THP-1 cells (10^5/well) were differentiated with PMA (80 nM, 48 hours) in a 96-well plate; endogenous in cells; host or cells: PMA-differentiated, LPS-primed THP-1 cells
Kind of data set: Inhibition of NLRP3 by IL-1β secretion level (ELISA). The format is cell-based. To be noted: PMA-differentiated THP-1, LPS (10 ng/mL) 4 hours, compound 1 hour, nigericin (10 μM) 1 hour. Here is the method: THP-1 cells (10^5/well) were differentiated with PMA (80 nM, 48 hours) in a 96-well plate (BD Biosciences). The differentiated macrophages were primed with LPS (10 ng/mL) for 4 hours. Thereafter, the cells were treated with each compound for 1 hour in a serum-free medium, followed by activation of NLRP3 by nigericin for an additional 1 hour. The supernatant was collected and the inhibition of human IL-1β secretion was analyzed using the Human IL-1β Uncoated ELISA Kit (Thermo Fisher Scientific, Inc.). A microplate spectrophotometer system (Molecular Devices) was employed to read absorbance in the plate.

For data set [11], the system named is AD model mice (Aβ1-42 injected). Kind of data set: Y-maze test in AD model (spatial working memory). The format is in vivo, C57BL/6 mice. To be noted: donepezil 1 mg/kg intraperitoneally, 3 days/week; vs vehicle-treated and untreated mice. The procedure: (§2) 6-week-old male C57BL/6 mice (19 to 22 g) were used, and 5 mice per cage were bred in a feedlot. To create an AD model, experimental animals were administered isoflurane by inhalation, and then injected with Aβ1-42 (5 μL) using a Hamilton microsyringe with a 26-gauge needle. The AD model mice were trained for 20 minutes/mouse for 2 days before the experimental procedure, and then subjected to Y-maze tests and novel object recognition tests (for cognitive evaluation). Behavioral evaluation was performed 7 days after Aβ1-42 injection. The animals were subdivided into AD, NIC7-treated, vehicle (DMSO)-treated, donepezil-treated (positive control) and normal (no-disease) groups. Cognitive evaluation was performed on days 7, 14, 21 and 28 after injection.
The alteration in spatial cognitive behavior was assessed using a Y-maze apparatus with three horizontal identical arms (35 cm long×15 cm high×5 cm wide) symmetrically arranged at 120° to each other. The evaluation was performed in the Y-maze test 7 days after Aβ injection. After introduction into the Y-maze, each animal was allowed to move freely for 2 minutes and then measured for 5 minutes. The test subjects tended to enter an arm different from the arm they had previously visited. The number of arm entries and triads was recorded to calculate the percentage of alternation. […]

Data set [12] has the same test system. Kind of data set: Novel object recognition test in AD model. The format is in vivo, C57BL/6 mice. As to conditions: donepezil 1 mg/kg intraperitoneally; vs vehicle-treated or untreated mice. Here is the method: as §2
A novel object recognition test was performed in an open field box containing two identical objects. Animals were first familiarized with these identical objects for 2 minutes, and then one of the objects was replaced with a novel object, followed by reading for 5 minutes. The time spent with an identical object (tA) and the time spent with a novel object (tB) were calculated, and the recognition index ratio was calculated via the formula (tB/(tA+tB))×100.

The text below walks through data of patent US20240132458A1, “NLRP3 INFLAMMASOME SMALL-MOLECULE INHIBITOR FOR TREATMENT OF ALZHEIMER'S DISEASE” (AJOU UNIVERSITY INDUSTRY-ACADEMIC COOPERATION FOUNDATION, priority 2021, published 2024).

“Also recorded” adds a separate entry of the source.

T5 sequence (P11712 whole entry): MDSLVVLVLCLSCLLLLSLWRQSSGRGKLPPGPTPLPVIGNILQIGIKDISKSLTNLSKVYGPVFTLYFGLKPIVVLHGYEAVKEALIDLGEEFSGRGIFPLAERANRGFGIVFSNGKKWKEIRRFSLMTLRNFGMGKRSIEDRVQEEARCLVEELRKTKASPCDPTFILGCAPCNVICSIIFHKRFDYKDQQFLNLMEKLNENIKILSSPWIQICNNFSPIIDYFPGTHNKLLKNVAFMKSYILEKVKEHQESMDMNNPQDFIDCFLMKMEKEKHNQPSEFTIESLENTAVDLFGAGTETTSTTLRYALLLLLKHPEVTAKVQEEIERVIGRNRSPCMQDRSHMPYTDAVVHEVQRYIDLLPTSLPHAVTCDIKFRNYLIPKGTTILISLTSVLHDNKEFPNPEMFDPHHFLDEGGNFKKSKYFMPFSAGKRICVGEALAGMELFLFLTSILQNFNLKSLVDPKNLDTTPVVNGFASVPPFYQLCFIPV
T6 sequence (Q96P20 whole entry): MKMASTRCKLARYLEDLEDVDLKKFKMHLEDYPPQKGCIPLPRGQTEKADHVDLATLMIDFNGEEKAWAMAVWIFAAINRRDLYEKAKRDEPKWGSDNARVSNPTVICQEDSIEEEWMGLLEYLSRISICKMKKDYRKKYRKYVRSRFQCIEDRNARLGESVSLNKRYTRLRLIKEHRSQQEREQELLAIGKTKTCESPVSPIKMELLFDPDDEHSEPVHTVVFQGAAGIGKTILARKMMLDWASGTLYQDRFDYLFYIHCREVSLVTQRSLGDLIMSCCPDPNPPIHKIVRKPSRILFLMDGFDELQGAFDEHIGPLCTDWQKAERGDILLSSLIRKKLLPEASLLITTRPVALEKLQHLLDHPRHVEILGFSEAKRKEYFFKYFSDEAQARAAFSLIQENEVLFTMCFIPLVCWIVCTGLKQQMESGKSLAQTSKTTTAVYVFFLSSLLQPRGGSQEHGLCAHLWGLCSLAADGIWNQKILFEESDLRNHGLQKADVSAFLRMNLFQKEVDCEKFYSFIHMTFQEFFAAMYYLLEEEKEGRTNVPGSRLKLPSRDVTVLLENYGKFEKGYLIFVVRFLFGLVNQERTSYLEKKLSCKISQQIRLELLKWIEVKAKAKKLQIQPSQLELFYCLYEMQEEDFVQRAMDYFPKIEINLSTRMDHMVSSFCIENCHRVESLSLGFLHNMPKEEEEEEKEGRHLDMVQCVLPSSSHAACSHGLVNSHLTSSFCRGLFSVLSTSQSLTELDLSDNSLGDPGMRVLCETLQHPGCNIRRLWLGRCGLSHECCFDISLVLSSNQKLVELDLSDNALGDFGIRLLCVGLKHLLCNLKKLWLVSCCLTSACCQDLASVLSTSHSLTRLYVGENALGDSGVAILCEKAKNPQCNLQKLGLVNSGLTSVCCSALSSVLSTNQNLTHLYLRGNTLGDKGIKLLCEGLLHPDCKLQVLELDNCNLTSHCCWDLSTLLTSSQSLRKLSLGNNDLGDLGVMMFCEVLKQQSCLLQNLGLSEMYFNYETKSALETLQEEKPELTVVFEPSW
T4 sequence (P08684 whole entry): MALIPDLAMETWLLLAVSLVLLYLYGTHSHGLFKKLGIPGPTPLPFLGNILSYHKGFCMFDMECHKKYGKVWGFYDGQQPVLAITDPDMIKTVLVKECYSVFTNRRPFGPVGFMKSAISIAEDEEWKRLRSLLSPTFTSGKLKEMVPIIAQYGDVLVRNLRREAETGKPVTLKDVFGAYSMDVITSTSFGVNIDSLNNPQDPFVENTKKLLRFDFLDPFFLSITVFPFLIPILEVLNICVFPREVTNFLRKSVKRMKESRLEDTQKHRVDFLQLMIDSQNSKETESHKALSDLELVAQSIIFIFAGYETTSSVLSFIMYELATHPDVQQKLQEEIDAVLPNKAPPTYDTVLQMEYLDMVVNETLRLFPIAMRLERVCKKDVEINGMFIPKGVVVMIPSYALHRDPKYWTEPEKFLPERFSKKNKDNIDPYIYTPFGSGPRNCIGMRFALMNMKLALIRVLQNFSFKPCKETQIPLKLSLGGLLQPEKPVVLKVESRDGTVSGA
T1 sequence (P33261 whole entry): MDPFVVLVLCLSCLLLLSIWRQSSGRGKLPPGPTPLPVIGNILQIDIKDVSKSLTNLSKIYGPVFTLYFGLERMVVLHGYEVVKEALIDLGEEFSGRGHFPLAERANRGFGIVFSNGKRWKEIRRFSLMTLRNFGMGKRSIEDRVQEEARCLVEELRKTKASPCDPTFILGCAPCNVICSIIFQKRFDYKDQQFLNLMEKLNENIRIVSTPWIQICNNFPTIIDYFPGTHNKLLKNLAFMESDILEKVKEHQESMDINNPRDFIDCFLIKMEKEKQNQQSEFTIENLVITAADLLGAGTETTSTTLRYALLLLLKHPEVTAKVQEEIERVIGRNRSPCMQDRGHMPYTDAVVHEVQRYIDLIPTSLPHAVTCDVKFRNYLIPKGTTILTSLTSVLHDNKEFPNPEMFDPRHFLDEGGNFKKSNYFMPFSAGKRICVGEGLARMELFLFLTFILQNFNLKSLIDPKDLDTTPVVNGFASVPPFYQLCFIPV
T3 sequence (P10635 whole entry): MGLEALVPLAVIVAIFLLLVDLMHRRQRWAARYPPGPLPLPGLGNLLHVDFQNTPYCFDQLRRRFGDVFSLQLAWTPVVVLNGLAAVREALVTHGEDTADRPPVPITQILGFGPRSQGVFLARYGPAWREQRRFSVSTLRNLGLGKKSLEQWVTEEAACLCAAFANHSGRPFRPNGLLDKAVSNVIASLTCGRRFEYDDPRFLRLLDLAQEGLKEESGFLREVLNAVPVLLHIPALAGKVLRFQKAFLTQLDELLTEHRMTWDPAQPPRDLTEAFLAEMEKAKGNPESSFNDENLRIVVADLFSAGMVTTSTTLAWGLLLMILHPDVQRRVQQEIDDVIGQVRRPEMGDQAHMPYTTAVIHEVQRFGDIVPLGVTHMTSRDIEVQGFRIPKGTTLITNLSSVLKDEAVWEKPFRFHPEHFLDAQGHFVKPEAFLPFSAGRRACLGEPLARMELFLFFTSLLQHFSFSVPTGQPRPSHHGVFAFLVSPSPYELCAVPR

Turning to `CC1CC(=O)c2s/c(=N\C3CCCCC3)oc2C1` (stereo not shown) [BOT-4-one], the IC50 in data set [1] is 590 to 1280 nM.
Consider `O=[N+]([O-])/C=C/c1ccc2c(c1)OCO2` [MNS], for which the 50% inhibitory concentration (IC50) in data set [2] is around 2000 nM.
As for `O=C(O)c1ccc(/C=C2/SC(=S)N(Cc3cccc(C(F)(F)F)c3)C2=O)cc1` [CY-09], the IC50 in data set [2] was around 5000 nM.
As for `CS(=O)(=O)CCC#N` [OLT1177], in data set [2], the IC50 is around 1000 nM.
On to NBC6, for which the IC50 in data set [2] is around 574 nM.
Turning to `Cc1ccc(S(=O)(=O)Nc2nc3cc(NC(=O)NCc4ccccc4)ccc3s2)cc1` [NIC7w, N-(5-(3-benzylureido)benzo[d]thiazol-2-yl)-4-methylbenzenesulfonamide], the inhibition at 10 min, 10 µM in data set [3] is 15.4%; in data set [4], below 1%; in data set [5] it was 9.1%; in [6], below 1%; in [7] (probe tolbutamide (4-hydroxylation), pooled human liver microsomes 0.25 mg/mL, tolbutamide, read-out: CYP inhibition (% at 10 μM) 2C9) it was 39.4%. The “CYP enzyme selectivity of inhibition” value in [7] (five P450 enzymes, 10 μM) is “acted mainly on CYP2C9 enzyme and hardly acted on other types of CYP enzymes”. In addition, the “metabolic stability versus positive control compound” value in data set [8] is “better half-life and stability than a positive control compound”. Further, in data set [8] (Human liver microsomes 0.5 mg/mL, 1 μM compound, 37° C.), the “Microsomal stability (% at 30 min)” value was “Human: 49.5%”. For the same compound, the “increase of amount of drug remaining after 30 minutes of metabolism compared to NIC7” value in [8] (human liver microsomes) is reported as 29.8%. The “inhibition of IL-1β and caspase 1 (Western blot)” value in data set [9] is “inhibition”. In data set [10], the “inhibition of IL-1β secretion caused by NLRP3” value was “most potent inhibition; also recorded: in a dose-dependent manner, more strongly and significantly than NIC7”.
As to `COc1cc2c(cc1OC)C(=O)C(CC1CCN(Cc3ccccc3)CC1)C2` (stereo not shown) [donepezil, reference compound], the “Y-maze test, spatial working memory” value in data set [11] is “spent more time in the novel arm”. The “recognition index rate (novel object recognition test)” value in data set [12] is reported as “better”.
For the compound `Cc1ccc(S(=O)(=O)/C=C/C#N)cc1` [Bay 11-7082], in data set [1], the IC50 is around 5000 nM.
